{"source": "patent US7557144B1", "about": "“Modulation of protein expression using carbocyclic aryl alkenoic acid derivatives” (The Johns Hopkins University, priority 2000, dated 2009)", "key": {"Hsc70": {"tested_on": "Hsc70", "assay": "Hsc70 immunoblot of IB3-1 whole cell lysates", "type": "cell-based, human", "settings": "IB3-1 cells", "experimental": "(§1) 3. Immunoblot analysis. Whole cell lysates were prepared by solubilization with 2% SDS at 95° C. Protein concentration in the lysates was determined using the Bio-Rad DC assay reagents with bovine plasma g-globulin as a standard (Bio-Rad Laboratories, Hercules, Calif.). Equal amounts of protein was resolved on 5, 7, 8, or 9% SDS-polyacrylamide gels. Proteins were transferred to nitrocellulose, and immunodetection was performed as previously described (25). Nonspecific binding was blocked by incubation of the nitrocellulose with 2% gelatin or 10% nonfat day milk. Primary antisera and secondary antibodies were applied in buffer containing 0.4% BSA overnight at 4° C. and for 1 h at room temperature, respectively. Detection of immunoreactivity was performed with the enhanced chemiluminescence reagent (ECL, Amer-sham) and fluorography. Recombinant bovine Hsc70 ([…]) was purchased from Stressgen Biotechnologies for use in constructing a standard curve of Hsc70 immunoreactivity. Immunoblots containing the bovine Hsc70 were probed with the Hsc70-specific polyclonal antiserum."}, "Hsp90": {"tested_on": "Hsp90", "assay": "Hsp90 immunoblot of IB3-1 lysates", "type": "cell-based, human", "settings": "IB3-1 cells, increasing concentrations of 4-PBA", "experimental": "as §1\n(§2) Whether 4-PBA would regulate expression of a number of other molecular chaperones in IB3-1 cells (FIG. 2) was assessed next. […] Hsp90 is required for correct folding and function of a number of cellular proteins (16). […] Hsp70 (Hsp72) expression is induced by heat shock and the presence of denatured proteins within the eukaryotic cell (16). In Escherichia coli, the Hsp70 homologue DnaK and the Hsp40 homologue DnaJ act to promote protein folding (16). Hdj2 is the member of the Hsp40 family that specifically interacts with and regulates the ATPase activity of Hsc70. Hdj2 also interacts with CFTR during CFTR translation (26).\nFIGS. 2A-2E are more specifically explained as follows. […]\nFIGS. 5A-C are explained in more detail as follows. […] Cellular homogenates were prepared in 2% SDS as described in METHODS, and 5 μg of total cellular protein were analyzed by immunoblot for Hsc70 using rabbit polyclonal antiserum, Hsp90, Hsp70, Hsp40 as described above under General Comments. […]"}, "Hsp70": {"tested_on": "Hsp70", "assay": "Hsp70 immunoblot of IB3-1 lysates", "type": "cell-based, human", "settings": "IB3-1 cells", "experimental": "as §1, §2\nFIGS. 2A-2E are more specifically explained as follows. […] IB3-1 cells were treated as described for FIG. 1. Immunoblotting with 5 μg of IB3-1 SDS lysate protein was performed as described in the foregoing General Comments.\nFIGS. 5A-C are explained in more detail as follows. […] A: IB3-1 cells were incubated at 37° C. for 2 days under indicated conditions. Cellular homogenates were prepared in 2% SDS as described in METHODS, and 5 μg of total cellular protein were analyzed by immunoblot for Hsc70 using rabbit polyclonal antiserum, Hsp90, Hsp70, Hsp40 as described above under General Comments. Con, control. B and C: densitometric analysis of Hsc70 expression (B) and Hsp90, Hsp70, and Hsp40 expression (C) was performed as described for FIG. 1. B: means 6 SE of density in 4 independent experiments."}, "Hdj2": {"tested_on": "Hdj2", "assay": "Hdj2 immunoblot of IB3-1 lysates", "type": "cell-based, human", "settings": "IB3-1 cells, increasing concentrations of 4-PBA", "experimental": "as §1\nWhether 4-PBA would regulate expression of a number of other molecular chaperones in IB3-1 cells (FIG. 2) was assessed next. […] Hsp90 is required for correct folding and function of a number of cellular proteins (16). […]"}, "Hsc70-CFTR complexes": {"target": "T1, Hsc70-CFTR complexes (Homo sapiens, UniProt P11142+P13569, DEL508-508)", "T1 construct": "endogenous in cells; host or cells: IB3-1 (RIPA lysate, immunoprecipitated with anti-Hsc70 serum)", "T1 sequence (P13569 with tags, fused parts or gaps DEL508-508)": "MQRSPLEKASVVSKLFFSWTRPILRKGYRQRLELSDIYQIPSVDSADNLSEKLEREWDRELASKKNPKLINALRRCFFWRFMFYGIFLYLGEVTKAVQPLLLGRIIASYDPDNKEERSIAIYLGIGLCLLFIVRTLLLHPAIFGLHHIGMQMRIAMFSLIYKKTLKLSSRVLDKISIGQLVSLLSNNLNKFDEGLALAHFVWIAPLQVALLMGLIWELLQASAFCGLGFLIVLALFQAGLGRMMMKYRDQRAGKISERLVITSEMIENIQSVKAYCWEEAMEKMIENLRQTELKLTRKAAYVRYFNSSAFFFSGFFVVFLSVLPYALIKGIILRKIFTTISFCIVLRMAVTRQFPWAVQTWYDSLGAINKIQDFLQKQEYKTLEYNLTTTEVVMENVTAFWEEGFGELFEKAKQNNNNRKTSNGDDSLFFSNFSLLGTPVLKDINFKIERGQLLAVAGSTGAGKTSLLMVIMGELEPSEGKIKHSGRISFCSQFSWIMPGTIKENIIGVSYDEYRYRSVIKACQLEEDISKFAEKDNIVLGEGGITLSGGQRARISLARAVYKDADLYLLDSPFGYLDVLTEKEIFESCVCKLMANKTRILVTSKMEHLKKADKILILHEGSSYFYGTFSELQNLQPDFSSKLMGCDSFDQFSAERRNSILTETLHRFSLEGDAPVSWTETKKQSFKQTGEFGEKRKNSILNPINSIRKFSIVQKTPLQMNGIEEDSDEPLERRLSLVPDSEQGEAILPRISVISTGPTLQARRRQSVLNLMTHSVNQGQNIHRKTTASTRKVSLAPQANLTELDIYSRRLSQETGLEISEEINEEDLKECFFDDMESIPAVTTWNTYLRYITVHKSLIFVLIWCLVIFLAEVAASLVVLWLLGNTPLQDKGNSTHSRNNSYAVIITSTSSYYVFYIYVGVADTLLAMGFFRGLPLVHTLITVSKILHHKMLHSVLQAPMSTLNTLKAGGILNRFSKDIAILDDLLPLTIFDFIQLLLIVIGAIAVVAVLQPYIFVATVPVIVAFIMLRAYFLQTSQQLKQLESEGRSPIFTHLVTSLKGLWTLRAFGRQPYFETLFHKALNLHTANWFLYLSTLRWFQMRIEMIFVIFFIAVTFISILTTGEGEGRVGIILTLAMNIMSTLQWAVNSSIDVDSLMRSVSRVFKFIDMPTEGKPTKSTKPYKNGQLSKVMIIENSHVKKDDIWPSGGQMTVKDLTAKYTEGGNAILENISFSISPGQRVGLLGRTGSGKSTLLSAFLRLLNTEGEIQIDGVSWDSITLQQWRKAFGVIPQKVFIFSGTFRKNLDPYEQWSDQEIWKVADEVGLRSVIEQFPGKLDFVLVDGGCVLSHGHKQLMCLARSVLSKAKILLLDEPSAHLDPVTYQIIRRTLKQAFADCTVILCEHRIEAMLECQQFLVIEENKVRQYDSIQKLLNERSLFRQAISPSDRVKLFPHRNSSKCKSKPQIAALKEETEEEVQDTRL", "T1 sequence (P11142 2-646 limits assumed, stated change not applied)": "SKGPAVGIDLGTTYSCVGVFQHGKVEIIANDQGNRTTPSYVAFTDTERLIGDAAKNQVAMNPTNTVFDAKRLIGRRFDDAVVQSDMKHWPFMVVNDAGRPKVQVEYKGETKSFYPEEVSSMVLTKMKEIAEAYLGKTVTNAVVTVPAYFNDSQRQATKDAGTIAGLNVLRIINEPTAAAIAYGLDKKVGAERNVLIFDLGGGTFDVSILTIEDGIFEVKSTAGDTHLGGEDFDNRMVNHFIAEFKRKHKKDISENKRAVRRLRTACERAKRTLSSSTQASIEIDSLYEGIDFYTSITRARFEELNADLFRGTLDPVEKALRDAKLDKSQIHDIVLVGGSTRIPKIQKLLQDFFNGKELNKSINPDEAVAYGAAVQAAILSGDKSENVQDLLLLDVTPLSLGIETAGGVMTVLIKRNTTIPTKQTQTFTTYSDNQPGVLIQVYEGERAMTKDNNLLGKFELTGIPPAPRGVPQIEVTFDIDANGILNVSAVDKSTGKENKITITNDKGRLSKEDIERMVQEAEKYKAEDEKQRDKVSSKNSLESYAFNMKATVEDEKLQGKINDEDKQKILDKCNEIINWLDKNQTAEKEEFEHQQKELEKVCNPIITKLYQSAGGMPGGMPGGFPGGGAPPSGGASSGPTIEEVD", "assay": "Immunoprecipitation of Hsc70-CFTR complexes from untreated IB3-1 cells with 4-PBA in lysis and wash buffers", "type": "binding", "settings": "1 mM 4-PBA added to RIPA lysis and wash buffers", "experimental": "5. Immunoprecipitation. Cultured cells were solubilized by incubation for 1 h at 4° C. in RIPA[50 mM Tris-Cl (pH8.0), 150 mM NaCl, 1% Triton X-100 (Bio-Rad or Fisher Scientific), 1% sodium deoxycholate (Sigma), and protease inhibitor cocktail (Sigma; used at 1:1,000 final dilution)]. Solubilized cells were then homogenized by passage 10 times through a 20-gauge needle and cleared by centrifugation at 15,000 g for 20 min at 4° C. Protein concentration was determined using the Bio-Rad DC reagents as above. Polyclonal Hsc70 antiserum was added to the cell lysates (2 μl/250 μg total protein, with equal amounts of protein at equal final concentrations for each condition within an experiment) and incubated at 4° C. over-night with gentle agitation. Immune complexes were captured with protein A-Sepharose 4B (Pharmacia Biotechnologies, Piscataway, N.J.) that had been preabsorbed with BSA for 45 min at 4° C. […]\nThe decrease in CFTR recovered by immunoprecipitation in proportion to the decrease in Hsc70 is consistent with 4-PBA not directly influencing the binding affinity of CFTR and Hsc70. This was further assessed by immunoprecipitating Hsc70-CFTR complexes from untreated IB3-1 cells either with or without 1 mM 4-PBA added to the RIPA lysis and wash buffers."}, "CFTR": {"tested_on": "CFTR", "settings": "IB3-1 cells; previously shown (ref. 30); cited from earlier work"}, "[1]": {"settings": "growth medium, 37° C., 5% CO2; previously determined (ref. 30); cited from earlier work"}, "[2]": {"design": "fraction of administered 4-PBA excreted as PAG in the urine: unit not given here", "settings": "cited from earlier work"}, "[3]": {"settings": "administered 4-PBA; cited from earlier work"}, "[4]": {"tested_on": "CF airway epithelial cells", "settings": "Rubenstein et al. 1997; cited from earlier work"}}}
{"smiles": "O=C(O)CCCc1ccccc1", "note": "[4-PBA, 4-phenylbutyric acid]", "values": [{"measurement": "decrease in Hsc70 immunoreactivity", "setting": "Hsc70; 4-PBA 2 days, densitometry", "value": "~50", "unit": "%"}, {"measurement": "total Hsc70 immunoreactivity in whole cell lysates", "setting": "Hsc70; increasing concentrations of 4-PBA, 2 days", "value": "declined in a dose-dependent fashion"}, {"measurement": "expression of Hsp90", "setting": "Hsp90", "value": "did not affect"}, {"measurement": "expression of Hsp70", "setting": "Hsp70; increasing concentrations of 4-PBA (Example 1)", "value": "did not affect"}, {"measurement": "Hsp70 expression", "setting": "Hsp70; increasing concentrations of 4-phenylbutyrate (Example 11, FIG. 14)", "value": "induces Hsp70 in a dose-dependent manner"}, {"measurement": "expression of Hdj-2", "setting": "Hdj2", "value": "did not affect"}, {"measurement": "recovery of Hsc70 and associated CFTR", "setting": "Hsc70-CFTR complexes", "value": "unaltered"}, {"measurement": "4-PBA concentration leading to increased overall expression and appearance of mature CFTR", "setting": "CFTR", "value": "> 0.1", "unit": "mM"}, {"measurement": "time for which a constant concentration is maintained under culture conditions", "setting": "[1]", "value": "at least 2 days"}, {"measurement": "fraction of administered 4-PBA excreted as PAG in the urine", "setting": "[2]; in vivo", "value": "Ninety"}, {"measurement": "in vivo metabolic conversion", "setting": "[2]; then conjugated with glutamine to phenacetylglutamine, excreted in urine (ref. 6)", "value": "rapidly and completely converted by β-oxidation to phenylacetate"}, {"measurement": "toxicity", "setting": "[3]", "value": "little toxicity beyond a slightly bitter taste, mild stomach discomfort or mild peripheral edema if severely anemic"}, {"measurement": "cAMP-mediated chloride transport", "setting": "[4]", "value": "promote functional correction of cAMP-medicated chloride transport"}]}
